SMILES strings stand for the structures. Calls of active or inactive are those of the source. No cut-off for these calls is given here.

The target of the first series is Stimulator of interferon genes protein (Homo sapiens) (UniProt Q86WV6). In words: Inhibition of STING in human THP1-Dual KI-hSTING-R232 cells assessed as cGAMP-induced IRF luciferase expression at 1 uM incubated for 2 hrs by QUANTI-Luc reagent based luciferase reporter assay. The series is classed as cell-based.
Sequence of Stimulator of interferon genes protein (Homo sapiens) (Q86WV6 whole entry): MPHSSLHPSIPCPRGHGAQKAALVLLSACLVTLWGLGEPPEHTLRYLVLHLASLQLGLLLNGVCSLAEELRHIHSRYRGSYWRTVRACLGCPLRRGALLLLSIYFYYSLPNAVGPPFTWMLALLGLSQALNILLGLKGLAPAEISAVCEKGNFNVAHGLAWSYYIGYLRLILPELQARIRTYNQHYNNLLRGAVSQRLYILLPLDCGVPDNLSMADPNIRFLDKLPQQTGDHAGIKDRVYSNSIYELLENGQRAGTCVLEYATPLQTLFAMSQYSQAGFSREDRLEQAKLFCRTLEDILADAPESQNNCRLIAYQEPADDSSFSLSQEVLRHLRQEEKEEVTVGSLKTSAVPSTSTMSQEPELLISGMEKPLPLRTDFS
Regarding `CN(C(=O)Nc1c[nH]c2ccccc12)c1ccccc1`, the inhibition entry is “inactive”.

For `Cn1cc(NC(=O)Nc2ccc(C(N)=O)cc2)c2ccccc21`, the inhibition result was “inactive”.

Consider `Cc1cccc(NC(=O)Nc2c[nH]c3ccccc23)c1`, for which the inhibition result is “Active”.

Consider `Cn1cc(NC(=O)Nc2ccc(F)c(Cl)c2)c2ccccc21`, for which the inhibition result is “inactive”.

In the case of `O=C(Nc1ccc2c(c1)OCCO2)Nc1c[nH]c2ccccc12`, the inhibition entry is “inactive”.

Take `CCc1ccc(NC(=O)Nc2cn(C)c3ccccc23)cc1`: the inhibition entry is “inactive”.

For the molecule `Cn1cc(NC(=O)Nc2ccc(OC(F)(F)F)cc2)c2ccccc21`, the inhibition result was “inactive”.

On to `COc1ccc(NC(=O)Nc2c[nH]c3ccccc23)cc1`, for which the inhibition entry was “inactive”.

Take `O=C(Nc1cccc(Cl)c1)Nc1c[nH]c2ccccc12`: the inhibition entry was “Active”.

For `CN(C)c1ccc(NC(=O)Nc2c[nH]c3ccccc23)cc1`, the inhibition result is “inactive”.

Consider `Cn1cc(NC(=O)Nc2ccc(F)c(F)c2)c2ccccc21`, for which the inhibition entry was “inactive”.

Turning to `CC(=O)c1ccc(NC(=O)Nc2cn(C)c3ccccc23)cc1`, the inhibition entry is “inactive”.

Turning to `Cc1ccc(NC(=O)Nc2c[nH]c3ccccc23)c(C)c1`, the inhibition result is “inactive”.

Take `O=C(Nc1c[nH]c2ccccc12)N1Cc2ccccc2C1`: the inhibition entry was “inactive”.

Turning to `O=C(Nc1cccc(F)c1)Nc1c[nH]c2ccccc12`, the inhibition entry was “Active”.

Take `COc1cccc(NC(=O)Nc2c[nH]c3ccccc23)c1`: the inhibition entry is “Active”.

For `Cc1ccccc1NC(=O)Nc1c[nH]c2ccccc12`, the inhibition result was “inactive”.

With `Cc1cccc(NC(=O)Nc2c[nH]c3ccccc23)c1C`, the inhibition result is “inactive”.

For the molecule `CCc1ccccc1NC(=O)Nc1c[nH]c2ccccc12`, the inhibition result is “inactive”.

`NC(=O)c1ccc(NC(=O)Nc2c[nH]c3ccccc23)cc1`: the inhibition result is “inactive”.

The next series relates to Detroit 551. The series is described as follows: Cytotoxicity against human Detroit 551 cells assessed as reduction in cell viability by MTS assay. The series is classed as toxicity, cell-based. A general note: Tetrazolium dyes change colour on reduction, which living cells bring about.
Consider `O=C(Nc1ccc(C(F)(F)F)cc1)Nc1c[nH]c2ccccc12`, for which the Activity entry is reported as “Non-Toxic”.

In the case of `Cc1ccc(NC(=O)Nc2c[nH]c3ccccc23)cc1Cl`, the Activity entry is reported as “Non-Toxic”.

With `O=C(Nc1ccc(OC(F)(F)F)cc1)Nc1c[nH]c2ccccc12`, the Activity entry was “Non-Toxic”.

Consider `CC(C)c1ccc(NC(=O)Nc2c[nH]c3ccccc23)cc1`, for which the Activity entry is reported as “Non-Toxic”.

For `O=C(Nc1ccc(Cl)cc1)Nc1c[nH]c2ccccc12`, the Activity result is “Non-Toxic”.

Take `CCc1ccc(NC(=O)Nc2c[nH]c3ccccc23)cc1`: the Activity result is given as “Non-Toxic”.
